Laboratory results from ChEMBL document CHEMBL1201862, “PubChem BioAssay data set” (2004).
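These data come from cells grown in 96-well plates and exposed to compound for 48 hours at five concentrations. GI50: concentration for 50% inhibition of growth.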 Calls of active or inactive are those of the source. No stated cut-off is given here; in the data, active = GI50 up to about 1.1 µM and inactive = higher.

Legend:
Experiment in all cases: inhibition of tumour cell growth, NCI panel, 48 h
[1] = system: SR
[2] = system: COLO 205
[3] = system: BT-549
[4] = system: HT-29
[5] = system: Hs-578T
[6] = system: MCF7
[7] = system: CAKI-1
[8] = system: IGROV-1
[9] = system: EKVX
[10] = system: SF-268
[11] = system: U-251
[12] = system: TK-10
[13] = system: UACC-62
[14] = system: CCRF-CEM
[15] = system: MDA-MB-435
[16] = system: MDA-N
[17] = system: M14
[18] = system: SF-295
[19] = system: A498

SMILES | GI50 [1] | GI50 [2] | GI50 [3] | GI50 [4] | GI50 [5] | GI50 [6] | GI50 [7] | GI50 [8] | GI50 [9] | GI50 [10] | GI50 [11] | GI50 [12] | GI50 [13] | GI50 [14] | GI50 [15] | GI50 [16] | GI50 [17] | GI50 [18] | GI50 [19]
CC(C)CC(=O)NC(NC(C)C)(C(F)(F)F)C(F)(F)F | > 100 µM (inactive) | > 100 µM (inactive) | > 100 µM (inactive) | > 100 µM (inactive) | > 100 µM (inactive) | > 100 µM (inactive) | > 100 µM (inactive) | > 100 µM (inactive) | > 100 µM (inactive) | > 100 µM (inactive) | > 100 µM (inactive) | > 100 µM (inactive) | > 100 µM (inactive) | > 100 µM (inactive) | > 100 µM (inactive) | > 100 µM (inactive) | – | – | –
O=c1oc2ccc3ccccc3c2cc1-c1cn2ccsc2n1 | 9.27 µM (inactive) | 16.1 µM (inactive) | 16.8 µM (inactive) | 18 µM (inactive) | 45.1 µM (inactive) | 3.03 µM (inactive) | 23.8 µM (inactive) | 0.646 µM (active) | 16.1 µM (inactive) | 24.8 µM (inactive) | 71.9 µM (inactive) | 17.9 µM (inactive) | 16.2 µM (inactive) | 3.89 µM (inactive) | 22.4 µM (inactive) | 21.4 µM (inactive) | 24 µM (inactive) | 78.2 µM (inactive) | –
O=C(CCCCCNC(=O)c1ccc(Cl)cc1)NO | 2.54 µM (inactive) | 2.99 µM (inactive) | 21.9 µM (inactive) | 2.98 µM (inactive) | 8.99 µM (inactive) | 6.21 µM (inactive) | 4.05 µM (inactive) | 5.16 µM (inactive) | 8.97 µM (inactive) | 6.87 µM (inactive) | 5.04 µM (inactive) | 3.49 µM (inactive) | 3.03 µM (inactive) | 2.42 µM (inactive) | 3.11 µM (inactive) | 2.96 µM (inactive) | 5.71 µM (inactive) | 8.91 µM (inactive) | –
COc1ccc(/N=C2\C(=N/c3ccc(OC)cc3)N(c3ccccc3[N+](=O)[O-])C(=S)N2c2ccc(OC)cc2)cc1 | > 100 µM (inactive) | 17.1 µM (inactive) | 34.4 µM (inactive) | – | > 100 µM (inactive) | > 100 µM (inactive) | 81.5 µM (inactive) | > 100 µM (inactive) | 99.3 µM (inactive) | > 100 µM (inactive) | > 100 µM (inactive) | > 100 µM (inactive) | 78.9 µM (inactive) | – | > 100 µM (inactive) | 49.8 µM (inactive) | > 100 µM (inactive) | 51.8 µM (inactive) | –
O=C1CC(NC(=O)C(F)(F)F)c2c(Br)sc(N3CCNCC3)c21 (centres undefined) | – | > 100 µM (inactive) | > 100 µM (inactive) | 85.7 µM (inactive) | > 100 µM (inactive) | > 100 µM (inactive) | > 100 µM (inactive) | > 100 µM (inactive) | > 100 µM (inactive) | > 100 µM (inactive) | > 100 µM (inactive) | > 100 µM (inactive) | > 100 µM (inactive) | > 100 µM (inactive) | > 100 µM (inactive) | > 100 µM (inactive) | > 100 µM (inactive) | > 100 µM (inactive) | > 100 µM (inactive)
Cc1noc(NS(=O)(=O)c2ccc(NC(=O)c3ccc4[nH]c5ccccc5c(=O)c4c3)cc2)c1C | 29.1 µM (inactive) | 37.2 µM (inactive) | 33.3 µM (inactive) | 39.3 µM (inactive) | 42 µM (inactive) | 30.5 µM (inactive) | > 100 µM (inactive) | > 100 µM (inactive) | 80.4 µM (inactive) | 40.7 µM (inactive) | 27.4 µM (inactive) | > 100 µM (inactive) | 49.5 µM (inactive) | 23.7 µM (inactive) | 35.6 µM (inactive) | 57.8 µM (inactive) | > 100 µM (inactive) | 42.2 µM (inactive) | –
